In US10071081B2, “Compositions of 1,2,4-oxadiazole benzoic acid compounds and methods for their use” (PTC Therapeutics, Inc., priority 2003, dated 2018):
Counter-ions that a name gives are not always drawn.

What follows are compounds tested on luciferase reporter construct containing a UGA premature termination codon (assay: cell-based luciferase reporter assay). Settings: ranking combining potency and efficacy of protein synthesis; UGA luciferase reporter stably transfected in 293T Human Embryonic Kidney cells.
Parameters: species or system Human; key to Activity: *****: both extremely high potency and extremely high efficacy of protein synthesis; ****: extremely high potency of protein synthesis and very high efficacy; ****: very high potency of protein synthesis and extremely high efficacy; ***: both very high potency and very high efficacy of protein synthesis; **: very high potency of protein synthesis and significant efficacy; **: significant potency of protein synthesis and very high efficacy; *: significant potency and efficacy of protein synthesis
Description: Activity measurements in Table I were performed in a cell-based luciferase reporter assay (as described in Section 4.2) comprising a luciferase reporter construct containing a UGA premature termination codon that was stably transfected in 293T Human Embryonic Kidney cells. A small molecule, 3-[3-(4-Isopropyl-phenyl)-2,5-dioxo-imidazolidin-1-yl]-benzoic acid, known to allow readthrough of premature termination codons was used was used as an internal standard. Activity measurements are based on the qualitative relation between the minimum concentration of compound required to produce a given protein in a cell (potency) and the maximum amount of protein produced by the cell (efficacy). Potency and efficacy activities are ranked as either extremely high, very high or significant. The combination of these activities is used to determine the activity ranking.
Two assays were developed for use in high throughput screens to identify small molecules that promote nonsense suppression. Each assay utilized luciferase because it is a functional reporter gene assay (light is only produced if the protein is functional) and it is extremely sensitive (Light intensity is proportional to luciferase concentration in the nM range). The first assay is a cell-based luciferase reporter assay and the second is a biochemical assay consisting of rabbit reticulocyte lysate and a nonsense-containing luciferase reporter mRNA. In the cell-based assay, a luciferase reporter construct containing a UGA premature termination codon was stably transfected in 293T Human Embryonic Kidney cells. In the biochemical assay, mRNA containing a UGA premature termination codon was used as a reporter in an in vitro translation reaction using rabbit reticulocyte lysate supplemented with tRNA, hemin, creatine kinase, amino acids, KOAc, Mg(OAc)2, and creatine phosphate. […] Synthetic mRNA was prepared in vitro using the T7 promoter and the MegaScript in vitro transcription kit (Ambion).
To determine whether compounds also function in vivo, a stable cell line harboring the UGA nonsense-containing luciferase gene was treated with selected compounds. Cells were grown in standard medium supplemented with 1% penicillin-streptomycin (P/S) and 10% fetal bovine serum (FBS) to 70% confluency and split 1:1 the day before treatment. On the following day, cells were trypsinized and 40,000 cells were added to each well of a 96-well tissue culture dish. Serial dilutions of each compound were prepared to generate a six-point dose response curve spanning 2 logs (30 μM to 0.3 μM). The final concentration of the DMSO solvent remained constant at 1% in each well. Cells treated with 1% DMSO served as the background standard, and cells treated with gentamicin served as a positive control.
In the case of CCc1ccc(-c2nc(-c3cccc(C(=O)O)c3)no2)cc1 [Compound 38, 3-[5-(4-Ethyl-phenyl)-[1,2,4]oxadiazol-3-yl]-benzoic acid], the Activity was “*****”. In the case of O=C(O)c1cccc(-c2noc(-c3ccc(F)c(F)c3)n2)c1 [Compound 39, 3-[5-(3,4-Difluoro-phenyl)-[1,2,4]oxadiazol-3-yl]-benzoic acid], the Activity was “*****”. In the case of Cc1cccc(-c2nc(-c3cccc(C(=O)O)c3)no2)c1 [Compound 40, 3-(5-m-Tolyl-[1,2,4]oxadiazol-3-yl)-benzoic acid], the Activity was “*****”. For O=C(O)c1cccc(-c2noc(-c3ccc(-n4cccc4)cc3)n2)c1 [Compound 41, 3-[5-(4-Pyrrol-1-yl-phenyl)-[1,2,4]oxadiazol-3-yl]-benzoic acid], the Activity was “****”. O=C(O)c1cccc(-c2noc(Cc3ccccc3)n2)c1 [Compound 42, 3-(5-Benzyl-[1,2,4]oxadiazol-3-yl)-benzoic acid] was tested, and the Activity was “***”. For COCc1nc(-c2cccc(C(=O)O)c2)no1 [Compound 43, 3-(5-Methoxymethyl-[1,2,4]oxadiazol-3-yl)-benzoic acid], the Activity was “*”. O=C(O)c1cccc(-c2noc(-c3cc(F)ccc3F)n2)c1 [Compound 44, 3-[5-(2,5-Difluoro-phenyl)-[1,2,4]oxadiazol-3-yl]-benzoic acid] was tested, and the Activity was “****”. In the case of CCC(c1ccccc1)c1nc(-c2cccc(C(=O)O)c2)no1 (stereo not shown) [Compound 45, 3-[5-(1-Phenyl-propyl)-[1,2,4]oxadiazol-3-yl]-benzoic acid], the Activity was “*”. In the case of O=C(O)c1cccc(-c2noc(-c3ccccc3Cl)n2)c1 [Compound 46, 3-[5-(2-Chloro-phenyl)-[1,2,4]oxadiazol-3-yl]-benzoic acid], the Activity was “*****”. For O=C(O)c1cccc(-c2noc(-c3cccc(OC(F)(F)F)c3)n2)c1 [Compound 47, 3-[5-(3-Trifluoromethoxy-phenyl)-[1,2,4]oxadiazol-3-yl]-benzoic acid], the Activity was “****”. With O=C(O)c1cccc(-c2noc(Cc3ccc(F)cc3)n2)c1 [Compound 48, 3-[5-(4-Fluoro-benzyl)-[1,2,4]oxadiazol-3-yl]-benzoic acid] the Activity was “****”. With Cc1cc(-c2nc(-c3cccc(C(=O)O)c3)no2)c(C)o1 [Compound 49, 3-[5-(2,5-Dimethyl-furan-3-yl)-[1,2,4]oxadiazol-3-yl]-benzoic acid] the Activity was “****”. In the case of Cc1ccsc1-c1nc(-c2cccc(C(=O)O)c2)no1 [Compound 50, 3-[5-(3-Methyl-thiophen-2-yl)-[1,2,4]oxadiazol-3-yl]-benzoic acid], the Activity was “*****”. O=C(O)c1cccc(-c2noc(COc3cccc(Cl)c3)n2)c1 [Compound 51, 3-[5-(3-Chloro-phenoxymethyl)-[1,2,4]oxadiazol-3-yl]-benzoic acid] was tested, and the Activity was “**”. For O=C(O)c1cccc(-c2noc(-c3ccno3)n2)c1 [Compound 52, 3-(5-Isoxazol-5-yl-[1,2,4]oxadiazol-3-yl)-benzoic acid], the Activity was “**”. O=C(O)c1cccc(-c2noc(-c3ccc(Cl)nc3)n2)c1 [Compound 53, 3-[5-(6-Chloro-pyridin-3-yl)-[1,2,4]oxadiazol-3-yl]-benzoic acid] was tested, and the Activity was “****”. For O=C(O)c1cccc(-c2noc(CC3CCCC3)n2)c1 [Compound 56, 3-(5-Cyclopentylmethyl-[1,2,4]oxadiazol-3-yl)-benzoic acid], the Activity was “***”. For O=C(O)c1cccc(-c2noc(-c3ccc(F)cc3F)n2)c1 [Compound 57, 3-[5-(2,4-Difluoro-phenyl)-[1,2,4]oxadiazol-3-yl]-benzoic acid], the Activity was “****”. For O=C(O)c1cccc(-c2noc(-c3cccnc3)n2)c1 [Compound 58, 3-(5-Pyridin-3-yl-[1,2,4]oxadiazol-3-yl)-benzoic acid], the Activity was “***”. With O=C(O)c1cccc(-c2noc(-c3ccncc3)n2)c1 [Compound 59, 3-(5-Pyridin-4-yl-[1,2,4]oxadiazol-3-yl)-benzoic acid] the Activity was “***”. With O=C(O)c1cccc(-c2noc(C3CCC3)n2)c1 [Compound 60, 3-(5-Cyclobutyl-[1,2,4]oxadiazol-3-yl)-benzoic acid] the Activity was “**”. COc1ccc(Cc2nc(-c3cccc(C(=O)O)c3)no2)cc1 [Compound 61, 3-[5-(4-Methoxy-benzyl)-[1,2,4]oxadiazol-3-yl]-benzoic acid] was tested, and the Activity was “**”. With COc1ccc(-c2nc(-c3cccc(C(=O)O)c3)no2)cc1OC [Compound 62, 3-[5-(3,4-Dimethoxy-phenyl)-[1,2,4]oxadiazol-3-yl]-benzoic acid] the Activity was “****”. O=C(O)c1cccc(-c2noc(-c3cccnc3Cl)n2)c1 [Compound 63, 3-[5-(2-Chloro-pyridin-3-yl)-[1,2,4]oxadiazol-3-yl]-benzoic acid] was tested, and the Activity was “****”. In the case of CC(=O)N1CCC(c2nc(-c3cccc(C(=O)O)c3)no2)CC1 [Compound 64, 3-[5-(1-Acetyl-piperidin-4-yl)-[1,2,4]oxadiazol-3-yl]-benzoic acid], the Activity was “*”. O=C(O)c1cccc(-c2noc(-c3cc4ccccc4s3)n2)c1 [Compound 65, 3-(5-Benzo[b]thiophen-2-yl-[1,2,4]oxadiazol-3-yl)-benzoic acid] was tested, and the Activity was “*****”. CN(C)c1cccc(-c2nc(-c3cccc(C(=O)O)c3)no2)c1 [Compound 66, 3-[5-(3-Dimethylamino-phenyl)-[1,2,4]oxadiazol-3-yl]-benzoic acid] was tested, and the Activity was “****”. In the case of O=C(O)c1cccc(-c2noc(-c3cccc(F)c3F)n2)c1 [Compound 67, 3-[5-(2,3-Difluoro-phenyl)-[1,2,4]oxadiazol-3-yl]-benzoic acid], the Activity was “****”. Cc1ccc(F)c(-c2nc(-c3cccc(C(=O)O)c3)no2)c1 [Compound 68, 3-[5-(2-Fluoro-5-methyl-phenyl)-[1,2,4]oxadiazol-3-yl]-benzoic acid] was tested, and the Activity was “***”. For CSc1ncccc1-c1nc(-c2cccc(C(=O)O)c2)no1 [Compound 69, 3-[5-(2-Methylsulfanyl-pyridin-3-yl)-[1,2,4]oxadiazol-3-yl]-benzoic acid], the Activity was “****”. For O=C(O)c1cccc(-c2noc(-c3ccc4c(c3)OC(F)(F)O4)n2)c1 [Compound 70, 3-[5-(2,2-Difluoro-benzo[1,3]dioxol-5-yl)-[1,2,4]oxadiazol-3-yl]-benzoic acid], the Activity was “***”. For O=C(O)c1ccc(F)c(-c2noc(-c3ccc(F)cc3)n2)c1 [Compound 71, 4-Fluoro-3-[5-(4-fluoro-phenyl)-[1,2,4]oxadiazol-3-yl]-benzoic acid], the Activity was “*”. For O=C(O)c1cc(-c2noc(-c3ccc(F)cc3)n2)ccc1F [Compound 72, 2-Fluoro-5-[5-(4-fluoro-phenyl)-[1,2,4]oxadiazol-3-yl]-benzoic acid], the Activity was “***”. For O=C(O)c1cccc(-c2noc(-c3ccc(Cl)cc3F)n2)c1 [Compound 73, 3-[5-(4-Chloro-2-fluoro-phenyl)-[1,2,4]oxadiazol-3-yl]-benzoic acid], the Activity was “****”. In the case of O=C(O)c1cccc(-c2noc(-c3ccc(Br)cc3F)n2)c1 [Compound 74, 3-[5-(4-Bromo-2-fluoro-phenyl)-[1,2,4]oxadiazol-3-yl]-benzoic acid], the Activity was “***”. For O=C(O)c1cccc(-c2noc(-c3ccc(-c4ccccc4)cc3F)n2)c1 [Compound 75, 3-[5-(3-Fluoro-biphenyl-4-yl)-[1,2,4]oxadiazol-3-yl]-benzoic acid], the Activity was “****”. For COc1ccc(-c2noc(-c3ccc(F)cc3)n2)cc1C(=O)O [Compound 76, 5-[5-(4-Fluoro-phenyl)-[1,2,4]oxadiazol-3-yl]-2-methoxy-benzoic acid], the Activity was “*”. With N#Cc1ccc(-c2nc(-c3cccc(C(=O)O)c3)no2)cc1 [Compound 77, 3-[5-(4-Cyano-phenyl)-[1,2,4]oxadiazol-3-yl]-benzoic acid] the Activity was “*****”. For O=C([O][Na+])c1cccc(-c2noc(-c3ccccc3F)n2)c1 [Compound 78, 3-[5-(2-Fluoro-phenyl)-[1,2,4]oxadiazol-3-yl]-benzoic acid sodium salt], the Activity was “*****”. In the case of COC(=O)c1cccc(-c2noc(-c3ccc(F)cc3)n2)c1 [Compound 79, 3-[5-(4-Fluoro-phenyl)-[1,2,4]oxadiazol-3-yl]-benzoic acid methyl ester], the Activity was “***”.
